≈ marks a conversion by molar mass, not a printed value. Calls of active or inactive are those of the source. The calls are words filed in the database; no cut-off is given here.
Experiments:
Type in all cases: functional
[1] = system: Bacillus subtilis; assay: Antibacterial activity against Bacillus subtilis MTCC 121 assessed as reduction in bacterial growth incubated for 24 hrs by agar well diffusion method
[2] = system: Staphylococcus aureus; assay: Antibacterial activity against Staphylococcus aureus MLS-16 MTCC 2940 assessed as reduction in bacterial growth incubated for 24 hrs by agar well diffusion method
[3] = system: Micrococcus luteus; assay: Antibacterial activity against Micrococcus luteus MTCC 2470 assessed as reduction in bacterial growth incubated for 24 hrs by agar well diffusion method
[4] = system: Staphylococcus aureus; assay: Antibacterial activity against Staphylococcus aureus MTCC 96 assessed as reduction in bacterial growth incubated for 24 hrs by agar well diffusion method
[5] = system: Escherichia coli; assay: Antibacterial activity against Escherichia coli MTCC 739 assessed as reduction in bacterial growth incubated for 24 hrs by agar well diffusion method
[6] = system: Pseudomonas aeruginosa; assay: Antibacterial activity against Pseudomonas aeruginosa MTCC 2453 assessed as reduction in bacterial growth incubated for 24 hrs by agar well diffusion method
[7] = system: Raoultella planticola; assay: Antibacterial activity against Klebsiella planticola MTCC 530 assessed as reduction in bacterial growth incubated for 24 hrs by agar well diffusion method
[8] = system: Candida albicans; assay: Antifungal activity against Candida albicans MTCC 3017 assessed as reduction in fungal growth incubated for 24 hrs by agar well diffusion method; details: MTCC 3017, 24 h
[9] = system: Bacillus subtilis; assay: Bactericidal activity against Bacillus subtilis MTCC 121 assessed as reduction in bacterial survival incubated for 24 hrs followed by transfer of microbial suspension to agar plates and measured at 24 hrs post transfer by agar well diffusion method
[10] = system: Staphylococcus aureus; assay: Bactericidal activity against Staphylococcus aureus MLS-16 MTCC 2940 assessed as reduction in bacterial survival incubated for 24 hrs followed by transfer of microbial suspension to agar plates and measured at 24 hrs post transfer by agar well diffusion method
[11] = system: Micrococcus luteus; assay: Bactericidal activity against Micrococcus luteus MTCC 2470 assessed as reduction in bacterial survival incubated for 24 hrs followed by transfer of microbial suspension to agar plates and measured at 24 hrs post transfer by agar well diffusion method
[12] = system: Staphylococcus aureus; assay: Bactericidal activity against Staphylococcus aureus MTCC 96 assessed as reduction in bacterial survival incubated for 24 hrs followed by transfer of microbial suspension to agar plates and measured at 24 hrs post transfer by agar well diffusion method
[13] = system: Escherichia coli; assay: Bactericidal activity against Escherichia coli MTCC 739 assessed as reduction in bacterial survival incubated for 24 hrs followed by transfer of microbial suspension to agar plates and measured at 24 hrs post transfer by agar well diffusion method
[14] = system: Pseudomonas aeruginosa; assay: Bactericidal activity against Pseudomonas aeruginosa MTCC 2453 assessed as reduction in bacterial survival incubated for 24 hrs followed by transfer of microbial suspension to agar plates and measured at 24 hrs post transfer by agar well diffusion method
[15] = system: Raoultella planticola; assay: Bactericidal activity against Klebsiella planticola MTCC 530 assessed as reduction in bacterial survival incubated for 24 hrs followed by transfer of microbial suspension to agar plates and measured at 24 hrs post transfer by agar well diffusion method
[16] = system: Candida albicans; assay: Fungicidal activity against Candida albicans MTCC 3017 assessed as reduction in fungal survival incubated for 24 hrs followed by transfer of microbial suspension to agar plates and measured at 24 hrs post transfer by agar well diffusion method; details: MTCC 3017, 24 h

Row | Structure (SMILES) | MIC ([1]; MTCC 121, 24 h) | MIC ([2]; MLS-16 MTCC 2940, 24 h) | MIC ([3]; MTCC 2470, 24 h) | MIC ([4]; MTCC 96, 24 h) | MIC ([5]; MTCC 739, 24 h) | MIC ([6]; MTCC 2453, 24 h) | MIC ([7]; MTCC 530, 24 h) | MIC [8] | MBC ([9]; MTCC 121, 24 h) | MBC ([10]; MLS-16 MTCC 2940, 24 h) | MBC ([11]; MTCC 2470, 24 h) | MBC ([12]; MTCC 96, 24 h) | MBC ([13]; MTCC 739, 24 h) | MBC ([14]; MTCC 2453, 24 h) | MBC ([15]; MTCC 530, 24 h) | MFC [16] | further results
1 | O=C(c1cn(-c2ccc(C(F)(F)F)cc2)nn1)c1c(-c2ccc(Cl)cc2)nc2sccn12 | 15.6 µg/mL (≈ 32.9 µM) | > 125 µg/mL | > 125 µg/mL | > 125 µg/mL | > 125 µg/mL | > 125 µg/mL | > 125 µg/mL | 15.6 µg/mL (≈ 32.9 µM) | 31.2 µg/mL (≈ 65.8 µM) | > 125 µg/mL | > 125 µg/mL | > 125 µg/mL | > 125 µg/mL | > 125 µg/mL | > 125 µg/mL | 15.6 µg/mL (≈ 32.9 µM) | 
2 | COc1ccc(-c2nc3sccn3c2C(=O)c2cn(-c3cc(OC)c(OC)c(OC)c3)nn2)cc1 | 15.6 µg/mL (≈ 31.7 µM) | 7.8 µg/mL (≈ 15.9 µM) | 15.6 µg/mL (≈ 31.7 µM) | 15.6 µg/mL (≈ 31.7 µM) | > 125 µg/mL | > 125 µg/mL | > 125 µg/mL | 7.8 µg/mL (≈ 15.9 µM) | 31.2 µg/mL (≈ 63.5 µM) | 15.6 µg/mL (≈ 31.7 µM) | 31.2 µg/mL (≈ 63.5 µM) | 31.2 µg/mL (≈ 63.5 µM) | > 125 µg/mL | > 125 µg/mL | > 125 µg/mL | 15.6 µg/mL (≈ 31.7 µM) | 
3 | O=C(c1cn(-c2ccc(F)cc2Br)nn1)c1c(-c2ccc(Cl)cc2)nc2sccn12 | 3.9 µg/mL (≈ 7.76 µM) | 7.8 µg/mL (≈ 15.5 µM) | 3.9 µg/mL (≈ 7.76 µM) | 3.9 µg/mL (≈ 7.76 µM) | > 125 µg/mL | > 125 µg/mL | 3.9 µg/mL (≈ 7.76 µM) | 7.8 µg/mL (≈ 15.5 µM) | 7.8 µg/mL (≈ 15.5 µM) | 15.6 µg/mL (≈ 31 µM) | 7.8 µg/mL (≈ 15.5 µM) | 7.8 µg/mL (≈ 15.5 µM) | > 125 µg/mL | > 125 µg/mL | 7.8 µg/mL (≈ 15.5 µM) | 15.6 µg/mL (≈ 31 µM) | 
4 | O=C(c1cn(-c2ccc(F)cc2)nn1)c1c(-c2ccc(Cl)cc2)nc2sccn12 | 3.9 µg/mL (≈ 9.2 µM) | 7.8 µg/mL (≈ 18.4 µM) | 3.9 µg/mL (≈ 9.2 µM) | 3.9 µg/mL (≈ 9.2 µM) | > 125 µg/mL | > 125 µg/mL | 7.8 µg/mL (≈ 18.4 µM) | 15.6 µg/mL (≈ 36.8 µM) | 7.8 µg/mL (≈ 18.4 µM) | 15.6 µg/mL (≈ 36.8 µM) | 7.8 µg/mL (≈ 18.4 µM) | 7.8 µg/mL (≈ 18.4 µM) | > 125 µg/mL | > 125 µg/mL | 15.6 µg/mL (≈ 36.8 µM) | > 125 µg/mL | 
5 | Clc1ccc(COC(Cn2ccnc2)c2ccc(Cl)cc2Cl)c(Cl)c1 (centres undefined) [MICONAZOLE] |  |  |  |  |  |  |  | 3.9 µg/mL (≈ 9.37 µM) |  |  |  |  |  |  |  | 3.9 µg/mL (≈ 9.37 µM) | MIC [1]: inactive; MIC [2]: inactive; MIC [3]: inactive; MIC [4]: inactive; MIC [5]: inactive; MIC [6]: inactive; MIC [7]: inactive; MBC [9]: inactive; MBC [10]: inactive; MBC [11]: inactive; MBC [12]: inactive; MBC [13]: inactive; MBC [14]: inactive; MBC [15]: inactive
6 | COc1ccc(-c2nc3sccn3c2C(=O)c2cn(-c3ccc(F)cc3)nn2)cc1 | 3.9 µg/mL (≈ 9.3 µM) | 7.8 µg/mL (≈ 18.6 µM) | 3.9 µg/mL (≈ 9.3 µM) | 3.9 µg/mL (≈ 9.3 µM) | > 125 µg/mL | > 125 µg/mL | > 125 µg/mL | 15.6 µg/mL (≈ 37.2 µM) | 7.8 µg/mL (≈ 18.6 µM) | 15.6 µg/mL (≈ 37.2 µM) | 7.8 µg/mL (≈ 18.6 µM) | 7.8 µg/mL (≈ 18.6 µM) | > 125 µg/mL | > 125 µg/mL | > 125 µg/mL | 31.2 µg/mL (≈ 74.4 µM) | 
7 | COc1ccc(-c2nc3sccn3c2C(=O)c2cn(-c3ccc(F)cc3Br)nn2)cc1 | 7.8 µg/mL (≈ 15.7 µM) | 7.8 µg/mL (≈ 15.7 µM) | 3.9 µg/mL (≈ 7.83 µM) | 3.9 µg/mL (≈ 7.83 µM) | > 125 µg/mL | > 125 µg/mL | 15.6 µg/mL (≈ 31.3 µM) | 7.8 µg/mL (≈ 15.7 µM) | 15.6 µg/mL (≈ 31.3 µM) | 15.6 µg/mL (≈ 31.3 µM) | 7.8 µg/mL (≈ 15.7 µM) | 7.8 µg/mL (≈ 15.7 µM) | > 125 µg/mL | > 125 µg/mL | 15.6 µg/mL (≈ 31.3 µM) | 15.6 µg/mL (≈ 31.3 µM) | 
8 | O=C(c1cn(-c2ccc(C(F)(F)F)cc2)nn1)c1c(-c2ccccc2)nc2sccn12 | 3.9 µg/mL (≈ 8.88 µM) | 7.8 µg/mL (≈ 17.8 µM) | 3.9 µg/mL (≈ 8.88 µM) | 3.9 µg/mL (≈ 8.88 µM) | > 125 µg/mL | > 125 µg/mL | > 125 µg/mL | 15.6 µg/mL (≈ 35.5 µM) | 7.8 µg/mL (≈ 17.8 µM) | 15.6 µg/mL (≈ 35.5 µM) | 7.8 µg/mL (≈ 17.8 µM) | 7.8 µg/mL (≈ 17.8 µM) | > 125 µg/mL | > 125 µg/mL | > 125 µg/mL | 31.2 µg/mL (≈ 71 µM) | 
9 | COc1ccc(-n2cc(C(=O)c3c(-c4ccccc4)nc4sccn34)nn2)cc1 | 3.9 µg/mL (≈ 9.71 µM) | 7.8 µg/mL (≈ 19.4 µM) | 3.9 µg/mL (≈ 9.71 µM) | 7.8 µg/mL (≈ 19.4 µM) | > 125 µg/mL | > 125 µg/mL | 15.6 µg/mL (≈ 38.9 µM) | 15.6 µg/mL (≈ 38.9 µM) | 7.8 µg/mL (≈ 19.4 µM) | 15.6 µg/mL (≈ 38.9 µM) | 7.8 µg/mL (≈ 19.4 µM) | 15.6 µg/mL (≈ 38.9 µM) | > 125 µg/mL | > 125 µg/mL | 31.2 µg/mL (≈ 77.7 µM) | 31.2 µg/mL (≈ 77.7 µM) | 

From ChEMBL document CHEMBL4396937, “Synthesis of new triazole fused imidazo[2,1-b]thiazole hybrids with emphasis on Staphylococcus aureus virulence factors” (Bioorg Med Chem Lett, 2019)
